Measured values as given in US20240277698A1, “METHODS OF USING ALDOSTERONE SYNTHASE INHIBITORS” (CINCOR PHARMA, INC., priority 2021, published 2024).
Read-outs that look alike come from different tables or passages of the source.

Tests used:
aldosterone synthase = target: T1, aldosterone synthase (Homo sapiens, UniProt P19099); assay: SAD study: plasma and urine aldosterone and precursors (Cortrosyn challenge, standing, normal and low salt diet); assay type: in vivo; conditions: normal salt diet, low salt diet conditions
T1 construct: synthesized in the adrenal cortex by aldosterone synthase; endogenous in cells; host or cells: adrenal cortex of healthy human subjects (in vivo, oral dosing)
T1 sequence (P19099 25-503): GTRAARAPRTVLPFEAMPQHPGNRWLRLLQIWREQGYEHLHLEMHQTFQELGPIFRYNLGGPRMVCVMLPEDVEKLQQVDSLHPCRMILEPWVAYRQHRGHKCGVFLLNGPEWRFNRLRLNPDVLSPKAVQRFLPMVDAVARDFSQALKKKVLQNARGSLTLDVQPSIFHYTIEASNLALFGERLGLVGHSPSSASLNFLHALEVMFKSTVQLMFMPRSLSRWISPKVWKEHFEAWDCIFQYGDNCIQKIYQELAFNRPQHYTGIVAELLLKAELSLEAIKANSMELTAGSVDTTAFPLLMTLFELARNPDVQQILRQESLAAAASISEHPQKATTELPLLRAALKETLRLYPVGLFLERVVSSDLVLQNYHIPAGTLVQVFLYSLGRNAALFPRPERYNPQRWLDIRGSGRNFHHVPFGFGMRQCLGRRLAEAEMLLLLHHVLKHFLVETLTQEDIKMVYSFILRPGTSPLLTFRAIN
Description: Single doses of (R)-compound 1 reduced plasma and urine aldosterone levels by approximately 85% to 90% in a dose-dependent manner, consistently reaching a maximum effect at a dose of 10 mg (R)-compound 1 under the different conditions tested (Cortrosyn® challenge, standing, normal salt diet, and low salt diet conditions). No change in plasma cortisol levels was apparent across the full dose range tested (0 to 360 mg (R)-compound 1).
A maximum effect on aldosterone reduction was consistently achieved at a dose of 10 mg under the different conditions tested in healthy subjects (Cortrosyn® challenge, standing, normal salt diet, and low salt diet conditions). No change in plasma cortisol levels after the Cortrosyn challenge was apparent across the full dose range tested (0 to 360 mg of (R)-compound 1).
(R)-compound 1 induced a dose-dependent blunting of plasma aldosterone levels as compared to Day −1 baseline and as compared to placebo, with a maximum effect achieved at the 10 mg dose level (approximate 85% to 90% decrease as compared to Day −1). This effect was observed both on the post-Cortrosyn challenge readout (time interval 0 to 4 hours), and on the standing aldosterone peak (time interval 4 to 12 hours) (See FIG. 10).
Notes: Plasma aldosterone levels that were Below limit of quantification were set to the lower limit of quantitation value (5 pg/mL) to allow further calculation. […]

[1] = MAD study: urine pharmacokinetics; assay type: in vivo, human; set-up: CL renal: unit not given here; conditions: for Ae, D 1 (amount excreted in urine, Day 1) / Ae, D 10 (amount excreted in urine, Day 10) / Fe, D 1 (fraction of dose excreted renally, Day 1) / Fe, D 10 (fraction of dose excreted renally, Day 10) / CL renal: mean; for CL renal: human, urine, oral
Excerpt: For each subject, the study consisted of: • A screening period of up to 28 days; • A 5-day inpatient run-in period during which subjects adhered to a controlled, standardized diet and underwent baseline PD assessments; • A 15-day inpatient treatment period, during which subjects received (R)-compound 1 or placebo once daily for 10 days while adhering to a controlled, standardized diet, followed by PK and PD sampling over an additional 5 days; and • A follow-up visit 3 days (1 day) after discharge from the clinical unit. • A cortisol stimulation test (Cohorts 1 and 2 only) and standing aldosterone assessment (all cohorts) were performed on Days 1 and 10. Serial blood samples for PK and PD were obtained prior to and at specified time points over 24 hours after dosing on Day 1 as well as prior to and at specified time points over 120 hours after dosing on Day 10. In addition, blood samples for PK were collected prior to dosing on Days 8 and 9. Urine for PK and PD measurements was collected over 24 hours starting just prior to dosing on Day 1 as well as over 120 hours starting just prior to dosing on Day 10.

CCC(=O)N[C@@H]1CCCc2c(-c3ccc4c(c3)CCC(=O)N4C)cncc21 [(R)-Compound 1, (R)—N-(4-(1-methyl-2-oxo-1,2,3,4-tetrahydroquinolin-6-yl)-5,6,7,8-tetrahydroisoquinolin-8-yl)propionamide]
dose at which maximum effect on aldosterone reduction reached (aldosterone synthase): 10 mg
Ae, D 1 (amount excreted in urine, Day 1) ([1]; 0.5 mg QD, normal salt diet): 39952.889 ng
Ae, D 10 (amount excreted in urine, Day 10) ([1]; 0.5 mg QD, normal salt diet): 168181.917 ng
Fe, D 1 (fraction of dose excreted renally, Day 1) ([1]; 0.5 mg QD, normal salt diet): 7.991%
Fe, D 10 (fraction of dose excreted renally, Day 10) ([1]; 0.5 mg QD, normal salt diet): 33.636%
Ae, D 1 (amount excreted in urine, Day 1) ([1]; 1.5 mg QD, normal salt diet): 115762.122 ng
Ae, D 10 (amount excreted in urine, Day 10) ([1]; 1.5 mg QD, normal salt diet): 459968.526 ng
Fe, D 1 (fraction of dose excreted renally, Day 1) ([1]; 1.5 mg QD, normal salt diet): 7.717%
Fe, D 10 (fraction of dose excreted renally, Day 10) ([1]; 1.5 mg QD, normal salt diet): 30.665%
Ae, D 1 (amount excreted in urine, Day 1) ([1]; 2.5 mg QD, low salt diet): 1687233.672 ng
Ae, D 10 (amount excreted in urine, Day 10) ([1]; 2.5 mg QD, low salt diet): 766791.190 ng
Fe, D 1 (fraction of dose excreted renally, Day 1) ([1]; 2.5 mg QD, low salt diet): 6.749%
Fe, D 10 (fraction of dose excreted renally, Day 10) ([1]; 2.5 mg QD, low salt diet): 30.672%
Ae, D 1 (amount excreted in urine, Day 1) ([1]; 2.5 mg QD, normal salt diet): 270541.533 ng
Ae, D 10 (amount excreted in urine, Day 10) ([1]; 2.5 mg QD, normal salt diet): 826482.355 ng
Fe, D 1 (fraction of dose excreted renally, Day 1) ([1]; 2.5 mg QD, normal salt diet): 10.822%
Fe, D 10 (fraction of dose excreted renally, Day 10) ([1]; 2.5 mg QD, normal salt diet): 33.059%
Ae, D 1 (amount excreted in urine, Day 1) ([1]; 5.0 mg QD, low salt diet): 317339.306 ng
Ae, D 10 (amount excreted in urine, Day 10) ([1]; 5.0 mg QD, low salt diet): 1677304.469 ng
Fe, D 1 (fraction of dose excreted renally, Day 1) ([1]; 5.0 mg QD, low salt diet): 6.347%
Fe, D 10 (fraction of dose excreted renally, Day 10) ([1]; 5.0 mg QD, low salt diet): 33.546%
dose recovered unchanged in the urine, average ([1]; MAD study): approximately 7%
CL renal ([1]; 0.5 mg, 0.5 mg QD, normal salt diet, read-out: CLR, D 1 (renal clearance, Day 1) (converted)): 0.00888
CL renal ([1]; 0.5 mg, 0.5 mg QD, normal salt diet, read-out: CLR, D 10 (renal clearance, Day 10) (converted)): 0.00822
CL renal ([1]; 1.5 mg, 1.5 mg QD, normal salt diet, read-out: CLR, D 1 (renal clearance, Day 1) (converted)): 0.00958
CL renal ([1]; 1.5 mg, 1.5 mg QD, normal salt diet, read-out: CLR, D 10 (renal clearance, Day 10) (converted)): 0.00733
CL renal ([1]; 2.5 mg, 2.5 mg QD, low salt diet, read-out: CLR, D 1 (renal clearance, Day 1) (converted)): 0.00797
CL renal ([1]; 2.5 mg, 2.5 mg QD, low salt diet, read-out: CLR, D 10 (renal clearance, Day 10) (converted)): 0.0085
CL renal ([1]; 2.5 mg, 2.5 mg QD, normal salt diet, read-out: CLR, D 1 (renal clearance, Day 1) (converted)): 0.0136
CL renal ([1]; 2.5 mg, 2.5 mg QD, normal salt diet, read-out: CLR, D 10 (renal clearance, Day 10) (converted)): 0.0111
CL renal ([1]; 5 mg, 5.0 mg QD, low salt diet, read-out: CLR, D 1 (renal clearance, Day 1) (converted)): 0.00815
CL renal ([1]; 5 mg, 5.0 mg QD, low salt diet, read-out: CLR, D 10 (renal clearance, Day 10) (converted)): 0.00822
